Source: patent US7157092B1, “Acyl pseudodipeptides, preparation method and pharmaceutical compositions containing same” (Om Pharma, priority 1998, dated 2007)
Several values for one entry are separate records, joined by “and”; a condition that tells them apart may be missing. Identical values can stand only once. Like-named read-outs stand apart in the source and are kept apart here.

Key:
[1] = system: PROb syngenic tumoral line; assay: Treatment of peritoneal carcinoma induced by PROb cells in BDIX rats
UreB 1-569 = assay: Nasal immunization with urease B subunit of Heliobacter pylori: serum anti-UreB immunoglobulins (ELISA); format: in vivo, BALB/c mice; details: 4 times weekly, 25 μg OM-294-DP alone
LmCPb antigen [2] = format: in vivo, CBA mice; details: 2 injections LmCPb with adjuvant
LmCPb antigen [3] = assay: Primary response to single injection of Leishmania mexicana LmCPb antigen: lymph node cell proliferation (3H-TdR take-up); format: in vivo, CBA mice; details: single injection LmCPb 2 μg + 50 μg adjuvant
Experimental: (§1) CBA mice were administered through the tail a single injection of LmCPb in a 2 μg dose either in combination or not with 50 μg of OM-294-MP adjuvant. A control group was administered one injection of physiological saline buffer (non immunized subjects). Eleven days later, cells of the inguinal and periaortic lymph nodes (groups of 3 mice each) were cultured and the proliferative response directed to the purified LmCPb antigen, to a preparation of whole amastigotes of Leishmania mexicana and to concanvalin A (ConA) was evaluated by measuring tritiated thymidine take-up (^3H-TdR). γ IFN and IL-4 cytokine production by lymph node lymphocytes rechallenged in vitro with LmCPb antigen of Leishmania mexicana or by amastigotes was equally determined by ELISA (MIF00 γ IFN & M4000 IL-4 kits, R&D Systems Europe Ltd, Abingdon, UK) using a sample of each culture supernatant of lymph node lymphocytes before addition of ^3H-TdR.
(§2) Values reported in the tables stand for the mean value±standard deviation (triplicate) expressed in cpm for ^3H-TdR take-up and the arithmetic mean±standard deviation (triplicate) expressed in pg per ml for cytokine production in supernatant fluids.
(§3) Antigen: LmCPb stock solution is prepared at a concentration of 40 μg/ml in PBS (2×).
(§4) The negative control consists of a PBS solution without antigen.
(§5) Antigen-adjuvant mixture: Adjuvants are maintained for 10 minutes at 37° C. before vortexing for 3 minutes. Then, the antigen (1 volume) and the adjuvant (1 volume) are mixed and vortexed briefly before being incubated for 20 minutes at 37° C., and finally the whole mixture is vortexed again for 3 minutes.

monocytes and DC-6 cells = assay: IL-12 p70 production by monocytes and DC-6 cells (ELISA); details: 10 μg/ml, in presence of γ IFN; FIGS. 11, 12
LmCPb antigen [4] = assay: Primary response to single injection of LmCPb antigen: in vitro cytokine secretion by lymph node lymphocytes (ELISA); format: in vivo, CBA mice; details: single injection LmCPb + adjuvant
Experimental: as §1, §2, §3, §4, §5

gp63 antigen [5] = format: in vivo, CBA mice
[6] = system: mouse bone marrow stem cells; assay: Bone marrow stem cell proliferation (XTT); format: cell-based, C57/BL6 mice; details: 7 days incubation, FIG. 1
Experimental: Two six-week old male C57/BL6 mice were killed by CO2 inhalation followed by cervical dislocation. The mice were washed with alcohol, and the skin of the posterior members was entirely removed. The hip, femur and tibia bones were removed by joint disruption. The flesh was grossly removed using a scalpel. The bones were cleaned and the bone ends were cut with scissors. The marrrow was extracted from the bone lumen by injecting three times 1 ml of Dulbecco's Modified Eagle Medium (DH medium) from the extremities which were cut with scissors. The cells were suspended in DH medium and centrifuged at 300×g for 5 minutes. The supernatant fluid was discarded and the stem cells were suspended in DH medium supplemented with 20% foetal calf serum (FCS) The cell concentration was adjusted to 500 000 cells/ml. […]
Proliferation is determined by measuring the oxydation of a chromogenic substrate (XTT) in mitochondria of viable cells.
7 days later, the microtiter plates are centrifuged for 5 minutes at 400×g, and 100 μl of the supernatant fluid are withdrawn and discarded. […] After 8 hour incubation at 37° C. under 8% CO2 in an incubator at 100% RH, the microtiter plates are read with a spectrophotometer at 480 nm against a standard at 690 nm.
The results are expressed as mean values (+standard deviation) by plotting a dose versus response curve. […]

gp63 antigen [7] = format: in vivo, CBA mice; details: 2 s.c. injections gp63 2 μg with 2×50 μg OM-294-MP or 200 μg BCG
[8] = 10 i.v. injections of 1 mg/kg from day 13
[9] = 10 i.v. injections of 1 mg/kg from day 13, dissection at D42
[10] = in vitro: Amastigotes 17 × 10^−6/ml

CCCCCCCCCCCC(=O)O[C@H](CCCCCCCCCCC)CC(=O)NC(CCOP(=O)(O)O)C(=O)NCCCC(COP(=O)(O)O)NC(=O)C[C@H](O)CCCCCCCCCCC (stereo partly drawn) [OM-294-DP, 3-[(R)-3-dodecanoyloxytetradecanoylamino]-4-oxo-5-aza-9-[(R)-3-hydroxytetradecanoylamino]decan-1,10-diol 1, 10-bis(dihydrogenphosphate)]
Volume ascite, mean ± σ [1, 8]: 8 ± 23 ml/rat | Volume ascite, range [1, 8]: 0–73 ml/rat | animals surviving at day 42 following injection of tumor cells [1, 8]: 90% | Number of rats suffering from carcinoma belonging to class 0 (no nodules visible) [1, 9]: 4 | Number of rats suffering from carcinoma belonging to class 1 [1, 9]: 1 | Number of rats suffering from carcinoma belonging to class 2 [1, 9]: 2 | Number of rats suffering from carcinoma belonging to class 3 [1, 9]: 1 | Number of rats suffering from carcinoma belonging to class 4 [1, 9]: 2 | anti-tumor activity in the peritoneal carcinoma model ([1]; rat, in vivo): remarkable anti-tumor activity | Effect of product on ascite volume, p (Variance analysis) ([1]; versus NaCl): p < 0.05 | Effect of product on carcinoma classification, p (Kruskall-Wallis test) ([1]; versus NaCl): p < 0.05 | extension of rat survival rate, p (log rank test) ([1]; versus control): < 0.001 | anti-UreB antibodies in serum (UreB 1-569): No anti-UreB antibodies are detected | IL-4 concentration (LmCPb antigen [2]; [10]): 130 pg/mL and 110 pg/mL | γ IFN concentration (LmCPb antigen [2]; [10]): >600 pg/mL | γ IFN concentration (LmCPb antigen [2]; in vitro: Con A 5 μg/ml): 1200 pg/mL and 1900 pg/mL | IL-4 concentration (LmCPb antigen [2]; in vitro: LmCPb 15 μg/ml): 110 pg/mL and 88 pg/mL | γ IFN concentration (LmCPb antigen [2]; in vitro: LmCPb 15 μg/ml): 520 pg/mL and 360 pg/mL | IL-4 concentration (LmCPb antigen [2]; in vitro: No stimulant): <8 pg/mL | γ IFN concentration (LmCPb antigen [2]; in vitro: No stimulant): 460 pg/mL and 240 pg/mL

CCCCCCCCCCCC(=O)O[C@H](CCCCCCCCCCC)CC(=O)NC(CCOP(=O)(O)O)C(=O)NCCCC(CO)NC(=O)C[C@H](O)CCCCCCCCCCC (stereo partly drawn) [OM-294-MP, 3-[(R)-3-dodecanoyloxytetradecanoylamino]-4-oxo-5-aza-9-[(R)-3-hydroxytetradecanoylamino]-decane-1,10-diol 1-dihydrogenphosphate]
3H-TdR take-up (LmCPb antigen [3]; in vitro: Amastigotes 1.9 × 10^−6/ml): 44 ± 7 cpm × 10^−3/ml | 3H-TdR take-up (LmCPb antigen [3]; in vitro: Amastigotes 6 × 10^−6/ml): 79 ± 6 cpm × 10^−3/ml | 3H-TdR take-up (LmCPb antigen [3]; [10]): 119 ± 4 cpm × 10^−3/ml | 3H-TdR take-up (LmCPb antigen [3]; in vitro: Con A 5 μg/ml): 196 ± 10 cpm × 10^−3/ml | 3H-TdR take-up (LmCPb antigen [3]; in vitro: LmCPb 0.6 μg/ml): 19 ± 4 cpm × 10^−3/ml | 3H-TdR take-up (LmCPb antigen [3]; in vitro: LmCPb 1.7 μg/ml): 40 ± 4 cpm × 10^−3/ml | 3H-TdR take-up (LmCPb antigen [3]; in vitro: LmCPb 5 μg/ml): 80 ± 5 cpm × 10^−3/ml | 3H-TdR take-up (LmCPb antigen [3]; in vitro: LmCPb 15 μg/ml): 140 ± 10 cpm × 10^−3/ml | 3H-TdR take-up (LmCPb antigen [3]; in vitro: No stimulant): 11 ± 2 cpm × 10^−3/ml | IL-12 p70 production in monocytes and DC-6 cells (monocytes and DC-6 cells): induced in presence of γ IFN | γ IFN production (LmCPb antigen [4]; in vitro: Amastigotes): 320 pg/mL | IL-4 production (LmCPb antigen [4]; in vitro: Amastigotes 17 × 10^−5/ml): 65 pg/mL | IL-4 production (LmCPb antigen [4]; in vitro: Con A 5 μg/ml): 360 pg/mL | γ IFN production (LmCPb antigen [4]; in vitro: Con A 5 μg/ml): >1800 pg/mL | IL-4 production (LmCPb antigen [4]; in vitro: LmCPb 15 μg/ml): 130 pg/mL | γ IFN production (LmCPb antigen [4]; in vitro: LmCPb 15 μg/ml): 480 pg/mL | IL-4 production (LmCPb antigen [4]; in vitro: No challenge): <8 pg/mL | γ IFN production (LmCPb antigen [4]; in vitro: No stimulant): 25 pg/mL | IL-4 concentration (gp63 antigen [5]; gp63 in vitro 0): <8 pg/mL | γ IFN concentration (gp63 antigen [5]; gp63 in vitro 0): <9 pg/mL | IL-4 concentration (gp63 antigen [5]; gp63 in vitro 0.3): 125 pg/mL | γ IFN concentration (gp63 antigen [5]; gp63 in vitro 0.3): 135 pg/mL | IL-4 concentration (gp63 antigen [5]; gp63 in vitro 0.6): 83 pg/mL | γ IFN concentration (gp63 antigen [5]; gp63 in vitro 0.6): 120 pg/mL | cell proliferation of mouse bone marrow stem cells [6]: more moderate response than the diphosphorylated product | murine T lymphocyte proliferation, 3H-TdR take-up (gp63 antigen [7]; gp63 in vitro 0 μg/ml): 2.8 ± 0.7 cpm × 10^−3/ml | murine T lymphocyte proliferation, 3H-TdR take-up (gp63 antigen [7]; gp63 in vitro 0.16 μg/ml): 65 ± 11 cpm × 10^−3/ml | murine T lymphocyte proliferation, 3H-TdR take-up (gp63 antigen [7]; gp63 in vitro 0.31 μg/ml): 92 ± 11 cpm × 10^−3/ml | murine T lymphocyte proliferation, 3H-TdR take-up (gp63 antigen [7]; gp63 in vitro 0.62 μg/ml): 93 ± 13 cpm × 10^−3/ml | murine T lymphocyte proliferation, 3H-TdR take-up (gp63 antigen [7]; gp63 in vitro 1.25 μg/ml): 39 ± 7 cpm × 10^−3/ml
